Reference: patent publication US12162836B2, “N-acyl-{4-[(4-aryl-phenyl)sulfonylmethyl]piperidine} compounds and their therapeutic use” (Modern Biosciences Limited, priority 2019, dated 2024)

Experiments:
[1] = system: collagen-induced arthritis in DBA/1j mice; experiment: Mouse Collagen-Induced Arthritis; type: in vivo; conditions: 10 mg/kg/day, once daily for 14 days, oral gavage; arthritic index vs control
Method: Seven- to eight-week-old male DBA/1j mice were used for all procedures. Animals were housed in groups of 10, and were maintained at 21° C.±2° C. on a 12-hour light/dark cycle with food and water ad libitum. Complete Freund's adjuvant (CFA) was prepared by emulsifying bovine type II collagen at 4 mg/mL with a 4 mg/mL suspension of Mycobacterium tuberculosis H37Ra in Incomplete Freund's Adjuvant (IFA) (0.85 mL paraffin oil and 0.15 mL mannide monooleate) in a 1:1 (v/v) ratio. All mice were immunised subcutaneously with 200 μg of bovine type II collagen in CFA. 21 days later, all mice were immunised subcutaneously with 100 μg of bovine type II collagen in IFA. The mice started to develop signs and symptoms of arthritis following the ‘booster’ immunisation.
For macroscopic assessment of arthritis, the following signs were monitored in each paw of each mouse three times per week and summed to generate the Arthritic Index (A1) (the maximum A1 for one animal is 16): • 0=no visible effects of arthritis. • 1=oedema and/or erythema of 1 digit. • 2=oedema and/or erythema of 2 digits. • 3=oedema and/or erythema of more than 2 digits. • 4=severe arthritis of entire paw and digits.
Animals were sorted into treatment groups with a mean arthritic index of 2.5 and then dosed once daily for 14 days with compound: by oral gavage for test compounds, or by subcutaneous injection at a dose of 10 mg/kg for the positive control, etanercept. After completion of the experiment, the mice were sacrificed.
The data were analysed by generating an average of the arthritic index across each treatment group. The mean arthritic index was then compared to the arthritic index of control (untreated) animals using the following formula to generate a percentage inhibition of disease.

[2] = system: CYP1A2, CYP2C9, CYP2C19, CYP2D6 and CYP3A4; type: in vitro ADME, human
Method: The ability of test compounds to inhibit five of the most relevant cytochrome P450 enzymes was measured by determination of the activity of cytochrome P450 enzymes in recombinant cytochrome preparations, called Bactosomes (Cypex Ltd, Dundee, Scotland UK DD2 1 NH), in the presence of a specific probe substrate. Bactosomes are a highly efficient and cost-effective source of recombinant CYP450s which have a higher specific activity of enzyme compared to other sources, such as liver microsomes. […] The following CYP450 isoforms were assayed: CYP1A2, CYP2C9, CYP2C19, CYP2D6 and CYP3A4. The study of CYP450 inhibition potential in Bactosomes is accepted as a valuable model permitting rapid prediction of potential drug-drug interactions in vivo (see, e.g., Weaver et al., 2003).
Bactosomes were obtained from a commercial source (Cypex, Scotland, UK). Test compounds were incubated with Bactosomes at 6 concentrations. Samples were incubated for 10 minutes, after which the reaction was stopped and the samples analysed by LC-MS/MS Multiple Reaction Monitoring (MRM) for the presence/amount of substrate probe. […]

[3] = system: human, rat (Sprague Dawley) and dog (Beagle) hepatocytes; experiment: Metabolite identification (biaryl metabolite detection) in cryopreserved hepatocytes; type: in vitro ADME; conditions: primary hepatocyte incubations, 10 μM, final time point (60 minutes)
Method: The formation of metabolites in humans, rats and dogs was assessed to determine the propensity of the compounds to form a biaryl metabolite.
In vitro studies on the metabolism of drugs are usually performed using liver preparations such as isolated perfused livers, liver slices, liver homogenates, isolated cryopreserved hepatocytes, subcellular liver fractions (S9, cytosol, and microsomes), or recombinant metabolizing enzymes overexpressed on non-expressing cell systems, particularly CYP enzymes. Cryopreserved hepatocytes contain all the enzymes and co-factors needed for phase I and phase II drug metabolism, making them an excellent in vitro model for assessment of drug metabolic stability and metabolite profiling.
Cryopreserved human, rat (Sprague Dawley) and dog (Beagle) hepatocytes were revived from liquid nitrogen and plated at a seeding density of 2×10^6 cells/mL (>95% viability). Following a 15 minute incubation at 37° C. a sample was removed for a zero (0) minute time point assessment. […]
All samples were processed for analysis by protein precipitation using 500 μL ice-cold acetonitrile and analysed with a fit-for-purpose LC-MS/MS method.
At the completion of the study, the results were expressed as detection of the biaryl metabolite at the final time point.

SMILES | % inhibition of disease [1] | drug-drug interaction liability, CYP450 inhibition profile (in words) [2] | Biaryl metabolite detected? [3]
CC1(O)CCC(NS(=O)(=O)c2ccc(-c3ccc(F)cc3F)cc2)CC1 (centres unmarked) [ABD899, reference compound] | 77% | – | –
CC(=O)N1CCC(CS(=O)(=O)c2ccc(-c3ccc(F)cc3F)cc2)CC1 [NASMP-01, 1-(4-(((2′,4′-Difluoro-[1,1′-biphenyl]-4-yl)sulfonyl)methyl)piperidin-1-yl)ethan-1-one] | 64% | particularly good profile | No
CC(=O)N1CCC(CS(=O)(=O)c2ccc(-c3ccc(C#N)cc3Cl)cc2)CC1 [NASMP-05, 4′-(((1-Acetylpiperidin-4-yl)methyl)sulfonyl)-2-chloro-[1,1′-biphenyl]-4-carbonitrile] | – | particularly good profile | –
